{"source": "patent US9695155B2", "about": "“Herbicidal substituted pyrimidinyloxy benzene compounds” (E. I. DU PONT DE NEMOURS AND COMPANY, priority 2013, dated 2017)", "key": {"Italian ryegrass": {"test_system": "Italian ryegrass", "test": "Test E preemergence", "type": "in vivo, Lolium multiflorum", "conditions": "for Ryegrass, Italian plant response rating: scale 0 to 100 (0 no effect, 100 complete control); for Plant response rating, Ryegrass, Italian: scale 0 to 100, 0 no effect, 100 complete control", "in_short": "(§1)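 Response was scored visually on a 0-100 scale (100 = complete control) versus controls after 14 to 21 days in the greenhouse. Test chemicals, formulated with surfactant in a non-phytotoxic solvent mixture, had been applied preemergence to seeds in silt loam soil or postemergence to 1- to 4-leaf plants in potting medium.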"}, "palmer pigweed": {"test_system": "palmer pigweed", "test": "Test E postemergence", "type": "in vivo, Amaranthus palmeri", "conditions": "Postemergence, scale 0 to 100", "in_short": "as §1"}, "fall panicum": {"test_system": "fall panicum", "test": "Test E postemergence", "type": "in vivo, Panicum dichotomiflorum", "conditions": "Postemergence, scale 0 to 100", "in_short": "as §1"}, "corn": {"test_system": "corn", "test": "Test E postemergence", "type": "in vivo, Zea mays", "conditions": "Postemergence, scale 0 to 100", "in_short": "as §1"}, "yellow nutsedge": {"test_system": "yellow nutsedge", "test": "Test E preemergence", "type": "in vivo, Cyperus esculentus", "conditions": "for Nutsedge, Yellow plant response rating: scale 0 to 100 (0 no effect, 100 complete control); for Plant response rating, Nutsedge, Yellow: scale 0 to 100, 0 no effect, 100 complete control", "in_short": "as §1"}, "soybean": {"test_system": "soybean", "test": "Test E preemergence", "type": "in vivo, Glycine max", "conditions": "for Soybean plant response rating: scale 0 to 100 (0 no effect, 100 complete control); for Plant response rating, Soybean: scale 0 to 100, 0 no effect, 100 complete control", "in_short": "as §1"}, "sandbur": {"test_system": "sandbur", "test": "Test E preemergence", "type": "in vivo, Cenchrus echinatus", "conditions": "for Sandbur plant response rating: scale 0 to 100 (0 no effect, 100 complete control); for Plant response rating, Sandbur: scale 0 to 100, 0 no effect, 100 complete control", "in_short": "as §1"}, "giant foxtail": {"test_system": "giant foxtail", "test": "Test E preemergence", "type": "in vivo, Setaria faberii", "conditions": "for Foxtail, Giant plant response rating: scale 0 to 100 (0 no effect, 100 complete control); for Plant response rating, Foxtail, Giant: scale 0 to 100, 0 no effect, 100 complete control", "in_short": "as §1"}, "wild poinsettia": {"test_system": "wild poinsettia", "test": "Test E preemergence", "type": "in vivo, Euphorbia heterophylla", "conditions": "for Poinsettia, Wild plant response rating: scale 0 to 100 (0 no effect, 100 complete control); for Plant response rating, Poinsettia, Wild: scale 0 to 100, 0 no effect, 100 complete control", "in_short": "as §1"}, "waterhemp": {"test_system": "waterhemp", "test": "Test E preemergence", "type": "in vivo, Amaranthus rudis", "conditions": "for Waterhemp plant response rating: scale 0 to 100 (0 no effect, 100 complete control); for Plant response rating, Waterhemp: scale 0 to 100, 0 no effect, 100 complete control", "in_short": "as §1"}, "Brazilian crabgrass": {"test_system": "Brazilian crabgrass", "test": "Test E preemergence", "type": "in vivo, Digitaria horizontalis", "conditions": "for Crabgrass, Brazil plant response rating: scale 0 to 100 (0 no effect, 100 complete control); for Plant response rating, Crabgrass, Brazil: scale 0 to 100, 0 no effect, 100 complete control", "in_short": "as §1"}, "green foxtail": {"test_system": "green foxtail", "test": "Test E preemergence", "type": "in vivo, Setaria viridis", "conditions": "for Foxtail, Green plant response rating: scale 0 to 100 (0 no effect, 100 complete control); for Plant response rating, Foxtail, Green: scale 0 to 100, 0 no effect, 100 complete control", "in_short": "as §1"}, "barnyardgrass": {"test_system": "barnyardgrass", "test": "Test E postemergence", "type": "in vivo, Echinochloa crus-galli", "conditions": "Postemergence, scale 0 to 100", "in_short": "as §1"}, "velvetleaf": {"test_system": "velvetleaf", "test": "Test E preemergence", "type": "in vivo, Abutilon theophrasti", "conditions": "for Velvetleaf plant response rating: scale 0 to 100 (0 no effect, 100 complete control); for Plant response rating, Velvetleaf: scale 0 to 100, 0 no effect, 100 complete control", "in_short": "as §1"}, "hairy beggarticks": {"test_system": "hairy beggarticks", "test": "Test E preemergence", "type": "in vivo, Bidens pilosa", "conditions": "for Beggarticks plant response rating: scale 0 to 100 (0 no effect, 100 complete control); for Plant response rating, Beggarticks: scale 0 to 100, 0 no effect, 100 complete control", "in_short": "as §1"}}, "data": [{"smiles": "N#Cc1cccc(Oc2ncc(Cl)cn2)c1-n1cc(Cl)cn1", "note": "[Compound 72]", "values": [{"measurement": "Ryegrass, Italian plant response rating", "setting": "Italian ryegrass; 16 g ai/ha", "result": 0}, {"measurement": "Ryegrass, Italian plant response rating", "setting": "Italian ryegrass; 31 g ai/ha", "result": 15}, {"measurement": "Ryegrass, Italian plant response rating", "setting": "Italian ryegrass; 62 g ai/ha", "result": 20}, {"measurement": "Plant response rating, Ryegrass, Italian", "setting": "Italian ryegrass; 125 g ai/ha", "result": 35}, {"measurement": "Plant response rating, Ryegrass, Italian", "setting": "Italian ryegrass; 250 g ai/ha", "result": 75}, {"measurement": "Plant response rating, Pigweed, Palmer", "setting": "palmer pigweed; 62 g ai/ha", "result": 75}, {"measurement": "Plant response rating, Pigweed, Palmer", "setting": "palmer pigweed; 125 g ai/ha", "result": 90}, {"measurement": "Plant response rating, Panicum, Fall", "setting": "fall panicum; 62 g ai/ha", "result": 10}, {"measurement": "Plant response rating, Panicum, Fall", "setting": "fall panicum; 125 g ai/ha", "result": 10}, {"measurement": "Plant response rating, Corn", "setting": "corn; 62 g ai/ha", "result": 15}, {"measurement": "Plant response rating, Corn", "setting": "corn; 125 g ai/ha", "result": 10}, {"measurement": "Nutsedge, Yellow plant response rating", "setting": "yellow nutsedge; 16 g ai/ha", "result": 0}, {"measurement": "Nutsedge, Yellow plant response rating", "setting": "yellow nutsedge; 31 g ai/ha", "result": 0}, {"measurement": "Nutsedge, Yellow plant response rating", "setting": "yellow nutsedge; 62 g ai/ha", "result": 0}, {"measurement": "Plant response rating, Nutsedge, Yellow", "setting": "yellow nutsedge; 125 g ai/ha", "result": 25}, {"measurement": "Plant response rating, Nutsedge, Yellow", "setting": "yellow nutsedge; 250 g ai/ha", "result": 50}, {"measurement": "Soybean plant response rating", "setting": "soybean; 16 g ai/ha", "result": 0}, {"measurement": "Soybean plant response rating", "setting": "soybean; 31 g ai/ha", "result": 10}, {"measurement": "Soybean plant response rating", "setting": "soybean; 62 g ai/ha", "result": 25}, {"measurement": "Plant response rating, Soybean", "setting": "soybean; 125 g ai/ha", "result": 70}, {"measurement": "Plant response rating, Soybean", "setting": "soybean; 250 g ai/ha", "result": 90}, {"measurement": "Sandbur plant response rating", "setting": "sandbur; 16 g ai/ha", "result": 25}, {"measurement": "Sandbur plant response rating", "setting": "sandbur; 31 g ai/ha", "result": 40}, {"measurement": "Sandbur plant response rating", "setting": "sandbur; 62 g ai/ha", "result": 30}, {"measurement": "Plant response rating, Sandbur", "setting": "sandbur; 125 g ai/ha", "result": 35}, {"measurement": "Plant response rating, Sandbur", "setting": "sandbur; 250 g ai/ha", "result": 50}, {"measurement": "Foxtail, Giant plant response rating", "setting": "giant foxtail; 16 g ai/ha", "result": 35}, {"measurement": "Foxtail, Giant plant response rating", "setting": "giant foxtail; 31 g ai/ha", "result": 35}, {"measurement": "Foxtail, Giant plant response rating", "setting": "giant foxtail; 62 g ai/ha", "result": 95}, {"measurement": "Plant response rating, Foxtail, Giant", "setting": "giant foxtail; 125 g ai/ha", "result": 98}, {"measurement": "Plant response rating, Foxtail, Giant", "setting": "giant foxtail; 250 g ai/ha", "result": 100}, {"measurement": "Poinsettia, Wild plant response rating", "setting": "wild poinsettia; 16 g ai/ha", "result": 15}, {"measurement": "Poinsettia, Wild plant response rating", "setting": "wild poinsettia; 31 g ai/ha", "result": 5}, {"measurement": "Poinsettia, Wild plant response rating", "setting": "wild poinsettia; 62 g ai/ha", "result": 15}, {"measurement": "Plant response rating, Poinsettia, Wild", "setting": "wild poinsettia; 125 g ai/ha", "result": 70}, {"measurement": "Plant response rating, Poinsettia, Wild", "setting": "wild poinsettia; 250 g ai/ha", "result": 70}, {"measurement": "Waterhemp plant response rating", "setting": "waterhemp; 16 g ai/ha", "result": 95}, {"measurement": "Waterhemp plant response rating", "setting": "waterhemp; 31 g ai/ha", "result": 98}, {"measurement": "Waterhemp plant response rating", "setting": "waterhemp; 62 g ai/ha", "result": 100}, {"measurement": "Plant response rating, Waterhemp", "setting": "waterhemp; 125 g ai/ha", "result": 100}, {"measurement": "Plant response rating, Waterhemp", "setting": "waterhemp; 250 g ai/ha", "result": 100}, {"measurement": "Crabgrass, Brazil plant response rating", "setting": "Brazilian crabgrass; 16 g ai/ha", "result": 90}, {"measurement": "Crabgrass, Brazil plant response rating", "setting": "Brazilian crabgrass; 31 g ai/ha", "result": 98}, {"measurement": "Crabgrass, Brazil plant response rating", "setting": "Brazilian crabgrass; 62 g ai/ha", "result": 100}, {"measurement": "Plant response rating, Crabgrass, Brazil", "setting": "Brazilian crabgrass; 125 g ai/ha", "result": 100}, {"measurement": "Plant response rating, Crabgrass, Brazil", "setting": "Brazilian crabgrass; 250 g ai/ha", "result": 100}, {"measurement": "Foxtail, Green plant response rating", "setting": "green foxtail; 16 g ai/ha", "result": 30}, {"measurement": "Foxtail, Green plant response rating", "setting": "green foxtail; 31 g ai/ha", "result": 30}, {"measurement": "Foxtail, Green plant response rating", "setting": "green foxtail; 62 g ai/ha", "result": 95}, {"measurement": "Plant response rating, Foxtail, Green", "setting": "green foxtail; 125 g ai/ha", "result": 100}, {"measurement": "Plant response rating, Foxtail, Green", "setting": "green foxtail; 250 g ai/ha", "result": 100}, {"measurement": "Plant response rating, Barnyardgrass", "setting": "barnyardgrass; 62 g ai/ha", "result": 0}, {"measurement": "Plant response rating, Barnyardgrass", "setting": "barnyardgrass; 125 g ai/ha", "result": 10}, {"measurement": "Velvetleaf plant response rating", "setting": "velvetleaf; 16 g ai/ha", "result": 0}, {"measurement": "Velvetleaf plant response rating", "setting": "velvetleaf; 31 g ai/ha", "result": 0}, {"measurement": "Velvetleaf plant response rating", "setting": "velvetleaf; 62 g ai/ha", "result": 40}, {"measurement": "Plant response rating, Velvetleaf", "setting": "velvetleaf; 125 g ai/ha", "result": 65}, {"measurement": "Plant response rating, Velvetleaf", "setting": "velvetleaf; 250 g ai/ha", "result": 100}, {"measurement": "Beggarticks plant response rating", "setting": "hairy beggarticks; 16 g ai/ha, preemergence", "result": 0}, {"measurement": "Beggarticks plant response rating", "setting": "hairy beggarticks; 31 g ai/ha, preemergence", "result": 0}, {"measurement": "Plant response rating, Beggarticks", "setting": "hairy beggarticks; Preemergence, 62 g ai/ha", "result": 5}, {"measurement": "Plant response rating, Beggarticks", "setting": "hairy beggarticks; preemergence, 125 g ai/ha", "result": 5}, {"measurement": "Plant response rating, Beggarticks", "setting": "hairy beggarticks; preemergence, 250 g ai/ha", "result": 30}]}]}
